Laboratory results: US20110135571A1, “HYBRID NANOPARTICLES AS ANTI-CANCER THERAPEUTIC AGENTS AND DUAL THERAPEUTIC/IMAGING CONTRAST AGENTS” (priority 2008, published 2011)

Legend:
[1] = test system: MCF-7 cells (breast cancer); experiment: MCF-7 Viability Assays; format: cell-based, human
Excerpt: (§1) Cell Lines All cell lines were purchased from the Tissue Culture Facility of the UNC Lineberger Comprehensive Cancer Center (Chapel Hill, N.C., United States of America) and cultured as per American Type Culture Collection (ATCC; Manassas, Va., United States of America) recommendations. HT29 cells (ATCC# HTB 38) were propagated in McCoy's 5A (Cellgro, Manassas, Va., United States of America) supplemented with 10% fetal bovine serum and 1% penicillin/streptomycin. MCF-7 cells (ATCC# HTB 22) were propagated in MEM Alpha (Cellgro, Manassas, Va., United States of America) supplemented with 10% fetal bovine serum, 1% penicillin/streptomycin, 1% sodium pyruvate, and 10 μg/mL insulin.
(§2) HT-29 viability assays: Angiogenic human colon cancer (HT-29) cells were grown in 96 well plates at 2000 cells/well to 100 μL total volume. After a 24 hour incubation, the media was replaced with 100 μL of drug solution containing 0.5% DMSO and 0.5% phosphate buffered saline (PBS) in media, with drug concentrations varying as indicated. All concentrations were performed in quadruplicate. Cell viability was measured after 72 hours using CellTiter 96 Aqueous One Solution Assay (Promega Corporation, Madison, Wis., United States of America), according to the manufacturer's protocol.
MCF-7 Viability Assays. As a further control, cell viability assays were also performed using MCF-7 cells (breast cancer). MCF-7 cells were assayed under the same conditions as HT-29, and also at 4000 cells/well and 72 hours. Unlike with HT-29, Pt(IV) drugs are active. […] NCP-1′-b was also tested but at 2000 cells/well.

[2] = test system: Angiogenic human colon cancer (HT-29) cells; experiment: HT-29 viability assays; format: cell-based; settings: HT-29, 2000 cells/well, 72 hours, untargeted particles
Excerpt: as §1, §2

[3] = MCF-7, 4000 cells/well, 72 hours

Molecule	IC50 ([1]; MCF-7, 2000 cells/well)	IC50 [1, 3]	cell death on treatment of HT-29 cells [2]
cis-Pt(NH3)2Cl2 [cisplatin]	2.1 µM	10.7 µM	
[NH2][Pt]([NH2])([Cl])([Cl])([O]C(=O)CCC(=O)O)[O]C(=O)CCC(=O)O [DSCP, c,c,t-Pt(NH3)2Cl2(O2CCH2CH2CO2H)2]		11.1 µM	did not lead to any appreciable cell death
